For eight compounds, melting point and Ki results are on record in US8415380B2 (Hoffmann-La Roche Inc., priority 2007, dated 2013).

Data set [1] has as its target T1, rat mGlu2 receptor (Rattus norvegicus, UniProt P31421).
T1 construct: expressed in transfected cells; membranes prepared
Nature of the data set: [3H]-LY354740 binding on mGlu2 transfected CHO cell membranes. Conditions: 10 nM [3H]-LY354740, mGlu2 transfected CHO cell membranes, room temperature, 1 hour. From the text: [^3H]-LY354740 Binding on mGlu2 Transfected CHO Cell Membranes Transfection and Cell Culture
cDNA encoding the rat mGlu2 receptor protein in pBluescript II was subcloned into the eukaryotic expression vector pcDNA I-amp from Invitrogen Ltd (Paisley, UK). This vector construct (pcD1mGR^2) was co-transfected with a psvNeo plasmid encoding the gene for neomycin resistance, into CHO cells by a modified calcium phosphate method described by Chen & Okayama (1988). The cells were maintained in Dulbecco's Modified Eagle medium with reduced L-glutamine (1 mM final concentration), 36 mg/L L-Proline and 10% dialysed foetal calf serum from Gibco-Invitrogen; the medium was supplemented with 500 microM α-methyl-4-carboxyphenylglycine (MCPG). Selection was made in the presence of G-418 (300 ug/ml final concentration). Clones were identified by reverse transcription of 5 μg total RNA, followed by PCR using mGlu2 receptor specific primers 5′-[…]-3′ and 5′-[…]-3′ in 60 mM Tris HCl (pH 10), 15 mM (NH4)2SO4, 2 mM MgCl2, 25 units/ml Taq Polymerase with 30 cycles annealing at 60° C. for 1 min., extention at 72° C. for 30 s, and 1 min. 95° C. denaturation.
Cells, cultured as above, were harvested and washed three times with cold PBS and frozen at −80° C. The pellet was resuspended in cold 20 mM HEPES-NaOH buffer containing 10 mM EDTA (pH 7.4), and homogenised with a polytron (Kinematica, A G, Littau, Switzerland) for 10 s at 10 000 rpm. After centrifugation for 30 min. at 4° C., the pellet was washed once with cold 20 mM HEPES-NaOH buffer containing 0.1 mM EDTA, (pH 7.4). After a second centrifugation for 30 min. at 4° C. the pellet was resuspended in cold 20 mM HEPES-NaOH buffer containing 0.1 mM EDTA, (pH 7.4). Protein content was measured using the Micro BCA method from Pierce-Perbio (Rockford, Ill., USA) using bovine serum albumin as standard.
After thawing, the membranes were resuspended in cold 50 mM Tris-HCl buffer containing 2 mM MgCl2 (pH 7.4) (binding buffer). The final concentration of the membranes in the assays was 25 μg protein/ml. Inhibition experiments were performed with membranes incubated with 10 nM [^3H]-LY354740 at room temperature, for 1 hour, in presence of various concentrations of the compound to be tested. Following the incubations, membranes were filtered onto Whatmann GF/B glass fiber filters or onto GF/B Unifilter plates and washed 5 times with cold binding buffer. Non specific binding was measured in the presence of 10 μM (2S,2′R,3′R)-2-(2′3′-Dicarboxycyclopropyl)glycine (DCG IV from Tocris, Ellisville, Mo. USA). After transfer of the filters into plastic vials containing 10 ml of Ultima-gold scintillation fluid from Perkin-Elmer (Boston, Mass., USA), the radioactivity was measured by liquid scintillation in a Tri-Carb 2500 TR counter (Packard, Zurich, Switzerland). For 96-Unifilter plates the radioactivity was measured after addition of Microscint 40 scintillation fluid (Perkin Elmer, Boston Mass.) using a TopCount NXT (Packard)
The inhibition curves were fitted with a four parameter logistic equation giving IC50 values, and Hill coefficients.

T1 sequence (P31421 19-872): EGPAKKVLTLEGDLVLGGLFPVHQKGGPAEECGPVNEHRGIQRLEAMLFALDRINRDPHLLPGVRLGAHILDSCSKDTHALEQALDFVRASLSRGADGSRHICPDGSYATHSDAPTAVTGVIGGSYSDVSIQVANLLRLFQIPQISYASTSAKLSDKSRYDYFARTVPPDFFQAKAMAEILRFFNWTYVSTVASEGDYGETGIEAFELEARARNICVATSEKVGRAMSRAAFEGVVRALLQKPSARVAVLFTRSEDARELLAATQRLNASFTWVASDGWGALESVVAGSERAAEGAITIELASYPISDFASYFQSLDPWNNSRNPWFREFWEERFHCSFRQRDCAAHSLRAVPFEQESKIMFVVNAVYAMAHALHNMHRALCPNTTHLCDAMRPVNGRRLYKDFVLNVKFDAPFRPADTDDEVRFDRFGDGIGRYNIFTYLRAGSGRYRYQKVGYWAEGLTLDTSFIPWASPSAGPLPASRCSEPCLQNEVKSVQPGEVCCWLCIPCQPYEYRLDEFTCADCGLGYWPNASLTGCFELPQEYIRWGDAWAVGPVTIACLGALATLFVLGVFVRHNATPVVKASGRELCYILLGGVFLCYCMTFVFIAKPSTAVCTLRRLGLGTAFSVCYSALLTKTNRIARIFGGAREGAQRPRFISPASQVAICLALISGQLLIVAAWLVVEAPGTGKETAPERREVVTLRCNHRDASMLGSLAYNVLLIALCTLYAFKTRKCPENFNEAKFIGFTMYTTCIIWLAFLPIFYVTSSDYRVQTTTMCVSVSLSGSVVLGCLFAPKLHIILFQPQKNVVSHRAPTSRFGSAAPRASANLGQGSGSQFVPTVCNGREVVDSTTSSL

As for `Nc1ccc(-c2cccc(-c3nc(-c4ccc(C(F)(F)F)nc4)cc(C(F)(F)F)n3)c2)cn1` [Example 12, 5-{3-[4-Trifluoromethyl-6-(6-trifluoromethyl-pyridin-3-yl)-pyrimidin-2-yl]-phenyl}-pyridin-2-ylamine], the melting point stood at 244 °C. The affinity in data set [1], expressed as Ki, was 3.3 nM.
Taken in the same sequence, the figures for `Nc1ccc(-c2cn(-c3nc(-c4ccc(C(F)(F)F)nc4)cc(C(F)(F)F)n3)cn2)cn1` [Example 13, 5-{1-[4-Trifluoromethyl-6-(6-trifluoromethyl-pyridin-3-yl)-pyrimidin-2-yl]-1H-imidazol-4-yl}-pyridin-2-ylamine] were 259 °C and 33 nM.
Compound `NS(=O)(=O)c1ccc(-c2cc(-c3nc(-c4ccc(C(F)(F)F)nc4)cc(C(F)F)n3)ccn2)s1` [Example 17, 5-{4-[4-Difluoromethyl-6-(6-trifluoromethyl-pyridin-3-yl)-pyrimidin-2-yl]-pyridin-2-yl}-thiophene-2-sulfonic acid amide] came in with a melting point of 269.5 °C. In addition, the Ki in data set [1] came to 3.5 nM.
As to `NS(=O)(=O)c1cccc(-c2cn(-c3nc(-c4ccc(C(F)(F)F)nc4)cc(C(F)F)n3)cn2)c1` [Example 19, 3-{1-[4-Difluoromethyl-6-(6-trifluoromethyl-pyridin-3-yl)-pyrimidin-2-yl]-1H-imidazol-4-yl}-benzenesulfonamide], the melting point is 219.5 °C. In addition, in data set [1], the Ki was determined as 15 nM.
Taken in the same sequence, the figures for `Cc1cc(-c2ccc(C(F)(F)F)nc2)nc(-n2cnc(-c3ccc(N)nc3)c2)n1` [Example 20, 5-{1-[4-Methyl-6-(6-trifluoromethyl-pyridin-3-yl)-pyrimidin-2-yl]-1H-imidazol-4-yl}-pyridin-2-ylamine] were 220 °C and 62 nM.
Taken in the same sequence, the figures for `Cc1cc(-c2ccc(C(F)(F)F)nc2)cc(-c2cccc(-c3cccc(S(=O)(=O)NC(C)(C)C)c3)n2)n1` [Example 29, N-tert-Butyl-3-(6′-methyl-6″-trifluoromethyl-[2,2′;4′,3″]terpyridin-6-yl)-benzenesulfonamide] were 187 to 188 °C and 26 nM.
The compound `Cc1cc(-c2ccc(C(F)(F)F)nc2)cc(-c2cccc(-c3cccc(S(N)(=O)=O)c3)n2)n1` [Example 30, 3-(6′-Methyl-6″-trifluoromethyl-[2,2′;4′,3″]terpyridin-6-yl)-benzenesulfonamide] registered a melting point of 233 to 234 °C. For the same compound, in data set [1], the affinity, expressed as Ki, was 2 nM.
Taken in the same sequence, the figures for `Cc1cc(-c2ccc(C(F)(F)F)nc2)cc(-c2cccc(-c3ccc(N)nc3)c2)n1` [Example 33, 5-[3-(6′-Methyl-6-trifluoromethyl-[3,4′]bipyridinyl-2′-yl)-phenyl]-pyridin-2-ylamine] were 124 to 125 °C and 42 nM.

The melting point is the temperature, or range, at which the solid turns liquid. As a reminder, the Ki is a measure of affinity in units of concentration, obtained from inhibition or displacement. A higher Ki goes with lower affinity.
